Source: PubChem BioAssay AID449750 (Broad Institute, 2010)
Calls of active or inactive are those of the source. The rule behind the calls is not given here.

experiment: non-covalent RecA intein splicing inhibitors, dose response, biochemical, cell-free, fluorescence, secondary screen (AID 449750)

Structure (SMILES)	AC50
O=C(/C=C/c1ccc(O)cc1)c1ccc(NC2=C(N3CCCCC3)C(=O)c3ccccc3C2=O)cc1	2.06 µM
COc1cc(/C=N/NC(=O)c2ccc(F)cc2)ccc1OC(=O)c1ccco1	> 38 µM (inactive)
CN(C1=C(NC(=O)c2ccccc2)C(=O)c2ccccc2C1=O)C1CCS(=O)(=O)C1 (stereo not drawn)	3.3 µM
Oc1ccc(C=Nc2ccc3ncccc3c2)c(O)c1	3.75 µM
CC(C)Oc1cccc(C(=O)C2CCCN(C(=O)c3csnn3)C2)c1 (stereo not drawn)	> 38 µM (inactive)
Cc1ccc(CN=Cc2[nH]c3ccc(Br)c(Cl)c3c2O)cc1	22.9 µM
Cc1ccc(C2=NN(C(=O)CCl)C(c3ccco3)C2)o1 (stereo not drawn)	6.65 µM
Cc1[nH]nc2c1C(c1ccc(OC(=O)c3ccco3)cc1)C(C#N)=C(N)O2 (stereo not drawn)	> 38 µM (inactive)
CC(=O)NC(=S)c1c(N)n(Cc2ccccc2)c(=O)n(C)c1=O	> 38 µM (inactive)
CCc1ccc(OCC(=O)N/N=C2\CC(=O)c3ccccc32)cc1	26.8 µM
Cc1ccc(C(=O)N/N=C\c2cc(Br)c(Br)o2)cn1	15.7 µM
COc1ccc(NC(=O)/C(C#N)=C/c2ncc([N+](=O)[O-])n2C)c(OC)c1	> 38 µM (inactive)
Cc1ccc(C[n+]2c(-c3ccc(C)cc3)cc(-c3ccc(C)cc3)cc2-c2ccc(C)cc2)cc1	6.62 µM
Cn1c2c(c(=O)n(C)c1=O)[C@@]1(C(=O)Nc3ccccc31)C(C#N)=C(N)O2	> 38 µM (inactive)
O=C(Nc1nc(-c2ccccc2)cs1)c1ccccc1NS(=O)(=O)c1ccc(F)cc1	8.16 µM
O=S(=O)(Nc1ccc(O)c2ccccc12)c1ccc(F)cc1	0.377 µM
CN1C(=O)/C(=C/c2ccc(-c3ccccc3[N+](=O)[O-])o2)SC1=Nc1ccc(Cl)c(C(=O)O)c1	17.1 µM
CC1(N2CCOCC2)CC2(O)C(=[N+]1[O-])CCc1nonc12 (stereo not drawn)	36.5 µM
CC(=O)Oc1c(Br)cc(N(C(C)=O)S(=O)(=O)c2ccccc2)c2ccccc12	8.88 µM
[O-][N+]1=c2ccc(Nc3ccccc3)cc2=NC12CCCCC2	16.7 µM
Cc1nccn1-c1c([N+](=O)[O-])c(=O)n(C)c2ccccc12	> 38 µM (inactive)
COC(=O)Cc1c(C)[nH]n(-c2cc(Cl)cc(Cl)c2)c1=O	> 38 µM (inactive)

Structure (SMILES)	AC50
CCc1[nH]nc2c1C(Cc1ccccc1)C(C#N)=C(N)O2 (stereo not drawn)	> 38 µM (inactive)
COc1cccc(-n2nnnc2S(C)(=O)=O)c1	> 38 µM (inactive)
O=C(O)CSc1c2c(nc3cc(C(=O)Nc4cccc(C(F)(F)F)c4)ccc13)CCCC2	21.7 µM
COC(=O)c1sc(-c2cccs2)cc1NC(=O)/C=C/C(=O)O	35.9 µM
CC(=O)NCCn1c(SCC(=O)NCc2ccco2)nc2ccccc2c1=O	> 38 µM (inactive)
CCOC(=O)N1CCC2(CC1)C(C#N)=C(N)Oc1n[nH]c(C)c12	> 38 µM (inactive)
CC(=O)Nc1cccc(NC(=O)CSc2ncc(C(=O)Nc3ccccc3)c(=O)n2C)c1	> 38 µM (inactive)
CC(=O)Oc1ccc(/C=C2/C(=O)N(c3ccccc3)N=C2C)cc1	4.09 µM
Cc1[nH][nH]c(=O)c1C(c1ccc2c(c1)OCO2)c1c(C)[nH][nH]c1=O	19 µM
CCOc1ccc(C(c2c(C)[nH][nH]c2=O)c2c(C)[nH][nH]c2=O)cc1OC	6.7 µM
CCCc1[nH]nc2c1C(c1ccc(OCCN3CCOCC3)c(OC)c1)C(C#N)=C(N)O2 (stereo not drawn)	> 38 µM (inactive)
C/C(CC(=O)Nc1ccc(F)cc1)=N\NC(=O)COc1ccccc1	> 38 µM (inactive)
O=C(O)COc1cccc(/C=C2/SC(=S)N(Cc3ccccc3)C2=O)c1	21.5 µM
CC1=NN(c2ccc(C(=O)O)cc2)C(=O)/C1=C\c1ccc(OC(=O)c2cccs2)cc1	2.25 µM
CCc1ccc(N2C(=O)C(Cl)=C(N3CCOCC3)C2=O)cc1	> 38 µM (inactive)
COc1ccccc1/C=C/C1(C(=O)NC2CCCC2)CC(=O)N1c1ccc(F)cc1 (stereo not drawn)	9.42 µM
O=C(NC1=C(Nc2ccc(Cl)cc2)C(=O)c2ccccc2C1=O)c1ccccc1	34.4 µM
Cc1ccc(NC2=CC(=O)C(=O)c3ccccc32)cc1	6.16 µM
Cc1cccc(N(Cc2cc(=O)[nH]c3ccccc23)C(=O)CCl)c1	6.83 µM
CCCCn1c(N)c(C(=O)NCc2cccs2)c2nc3ccccc3nc21	> 38 µM (inactive)
CCCCOc1ccc(C2C3CN(C(=O)OCC)CC=C3C(C#N)=C(N)C2(C#N)C#N)cc1OC (stereo not drawn)	> 38 µM (inactive)
